Drawing on PubChem BioAssay AID743403 (Broad Institute, 2014), this text covers activity change, negative = active and AC50 for 46 compounds.

Each structure is given as a SMILES string. “And” between values parts separate entries of the source, which are not always exact repeats. Equal entries are not always repeated. The source made the active and inactive calls. No rule for the calls is given here.

Broadly, the AC50 is the concentration at which the activity in the assay is half-maximal.

System in the first assay: not listed separately
Kind of assay: fungal cell lysis by compounds – dry powder, set 2, dose response (AID 743403). Conditions: Cryptococcus neoformans cell lysis, plate reader; at 35 µM (top of the series).
Take `CCc1nc2ccccc2n1CCOc1ccccc1`: the activity change, negative = active is 5.25% (inactive). The same measure, in the same setting: for `CCCCc1nc2ccccc2n1CCOc1ccccc1` the value was 0.005% (inactive); for `S=c1[nH]c2cc(Cl)ccc2n1CCOc1ccccc1`, 27% (inactive); for `OCc1nc2ccccc2n1CCOc1ccccc1`, -9.32% (inactive). Same read-out and setting: for `COc1ccccc1OCCn1c(=S)[nH]c2ccccc21` the value was 3.55% (inactive).

Take `CCSc1nc2ccccc2n1CCOc1ccccc1`: the activity change, negative = active is -22.6% (inactive). For the compound `Cc1cccc(OCCn2c(=S)[nH]c3ccc(C(F)(F)F)cc32)c1`, the activity change, negative = active was 4.5% (inactive).

Regarding `O=S(=O)(c1ccc(OCCn2cnc3ccccc32)cc1)N1CCOCC1`, the activity change, negative = active was -21.8% (inactive). `Cc1ccc(C(C)C)c(OCCn2c(=O)[nH]c3ccccc32)c1`: the activity change, negative = active was -16.7% (inactive).

For the compound `CS(=O)(=O)c1ccc(OCCn2cnc3ccccc32)cc1`, the activity change, negative = active was -15.6% (inactive). Still for that read-out and setting: for `Cc1ccc(C(C)C)c(OCCn2c(CO)nc3ccccc32)c1` the value was -20.4% (inactive). On the same count and under the same terms, for `Fc1ccc(OCCn2c(=S)[nH]c3ccccc32)cc1` the value was -33.3% (inactive). On the same count and under the same terms, for `CCCc1nc2ccccc2n1CCOc1ccccc1` the value was 0.352% (inactive); for `COc1ccc(OCCn2cnc3ccccc32)cc1`, -22.1% (inactive). For the compound `Cc1ccc(C(C)C)c(OCCn2c(N)nc3ccccc32)c1`, the activity change, negative = active is 69.2% (inactive). On the same count and under the same terms, for `CC(C)c1ccccc1NCCn1c(=S)[nH]c2ccccc21` the value was 0.673% (inactive); for `Cc1ccc(C(C)C)c(OCCn2c(NC#N)nc3ccccc32)c1`, -9.31% (inactive); for `c1ccc(-c2ccc(OCCn3cnc4ccccc43)cc2)cc1`, -12.5% (inactive). The same measure, in the same setting: for `Cc1cccc(OCCn2c(=S)[nH]c3c(F)cccc32)c1` the value was 1.05% (inactive). For `COCc1nc2ccccc2n1CCOc1ccc(C(C)(C)C)cc1`, the activity change, negative = active is 5.6% (inactive). For the compound `CSc1nc2ccccc2n1CCOc1cc(C)ccc1C(C)C`, the activity change, negative = active is -4.35% (inactive).

Another assay has as its system Cryptococcus neoformans cell lysis, plate reader. The description is as above.
Details: not given
Consider `CC(C)Oc1ccc(OCCn2c(=S)[nH]c3ccccc32)cc1`, for which the AC50 was 29.7 µM. Same read-out and setting: for `Cc1ccc(C(C)C)c(OCCn2c(=S)[nH]c3ccccc32)c1` the value was 4.95 µM; for `CC(C)Oc1cccc(OCCn2cnc3ccccc32)c1`, 29 µM. Same read-out and setting: next, `Clc1ccc(OCCn2cnc3ccccc32)cc1`: 32.5 µM; `c1ccc2c(c1)ncn2CCOc1ccc2c(c1)CCC2`: 3.76 µM; `CC(C)(C)c1ccc(OCCn2cnc3ccccc32)cc1`: 30.5 µM. On the same count and under the same terms, next, `Cc1cccc(OCCn2c(=S)[nH]c3cc(F)ccc32)c1`: 14.8 µM and 15.5 µM; `Cc1cc2ncn(CCOc3ccccc3C)c2cc1C`: 19.8 µM; `Cc1cc2ncn(CCOc3ccccc3)c2cc1C`: 25 µM. Turning to `CC(C)(C)c1ccc(OCCn2cnc3ccccc32)c(Cl)c1`, the AC50 was 20.8 µM. Same read-out and setting: next, `COc1ccccc1OCCn1c(SC)nc2ccccc21`: > 70 µM (inactive); `CC(C)c1ccccc1OCCn1c(=S)[nH]c2ccccc21`: 11.9 µM; `Fc1ccc2c(c1)[nH]c(=S)n2CCOc1ccccc1`: 23.2 µM and 28.7 µM. With `Cc1ccc(OCCn2cnc3ccccc32)c(C)c1`, the AC50 is 7.4 µM.

As for `Clc1ccccc1OCCn1cnc2ccccc21`, the AC50 was 36.3 µM. Still for that read-out and setting: for `CSc1nc2ccccc2n1CCOc1ccc(C)cc1` the value was > 70 µM (inactive); for `Fc1cccc2c1[nH]c(=S)n2CCOc1ccccc1`, 26.2 µM. `Cc1cccc(OCCn2c(=S)[nH]c3ccccc32)c1`: the AC50 was 19.5 µM. Same read-out and setting: for `Cc1cc2ncn(CCOc3ccc4c(c3)CCC4)c2cc1C` the value was 5.59 µM; for `Cc1ccc(OCCn2cnc3cc(C)c(C)cc32)cc1`, 15.9 µM; for `NCC(=O)Nc1ccc(-n2nc(C(F)(F)F)cc2-c2ccc3c(ccc4ccccc43)c2)cc1`, 10.9 µM.

Consider `S=c1[nH]c2cccc(Cl)c2n1CCOc1ccccc1`, for which the AC50 is 8.43 µM. The same measure, in the same setting: for `FC(F)(F)c1cccc(OCCn2cnc3ccccc32)c1` the value was > 70 µM (inactive); for `Cc1ccc2c(c1)[nH]c(=S)n2CCOc1ccccc1`, 17.4 µM. On to `Clc1ccc(OCCn2cnc3ccccc32)c(Cl)c1`, for which the AC50 was 7.76 µM.
